Values quoted from earlier work in US20050222211A1, “S(-)rabeprazole compositions and methods” (Sepracor Inc., priority 1998, published 2005).

What was measured:
[1] = humans; depending on dose
[2] = system: gastric acid secretion; settings: humans
[3] = system: CYP 3A; settings: compared with omeprazole
[4] = molecular target: CYP 2C19 (Homo sapiens, UniProt P33261); settings: compared with omeprazole
[5] = system: CYP 1A1 mRNA; settings: compared with pantoprazole

Sequence of CYP 2C19 (P33261 whole entry, species assumed): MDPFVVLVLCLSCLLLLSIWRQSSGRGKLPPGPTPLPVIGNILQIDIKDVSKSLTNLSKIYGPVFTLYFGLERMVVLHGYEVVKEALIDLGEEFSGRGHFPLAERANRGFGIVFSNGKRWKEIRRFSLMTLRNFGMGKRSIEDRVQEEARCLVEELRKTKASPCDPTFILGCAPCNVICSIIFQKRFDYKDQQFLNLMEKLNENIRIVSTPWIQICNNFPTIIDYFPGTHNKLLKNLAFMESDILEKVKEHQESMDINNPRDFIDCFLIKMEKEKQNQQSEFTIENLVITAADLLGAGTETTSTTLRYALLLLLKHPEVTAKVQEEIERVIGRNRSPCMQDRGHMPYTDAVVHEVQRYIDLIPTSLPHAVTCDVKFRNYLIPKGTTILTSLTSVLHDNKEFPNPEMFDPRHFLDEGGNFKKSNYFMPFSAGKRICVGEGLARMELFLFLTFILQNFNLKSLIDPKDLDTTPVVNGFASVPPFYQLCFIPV

COCCCOc1ccnc(C[S+]([O-])c2nc3ccccc3[nH]2)c1C (racemic) [racemic rabeprazole]
serum half-life [1]: 0.833 to 1.5 h | duration of the acid inhibitory effect [2]: about 24 hours | effects on hepatic drug metabolizing enzyme systems such as CYP 3A [3]: comparable to omeprazole | inhibition of CYP 2C19 [4]: less inhibitory of CYP 2C19 than is omeprazole | induction of CYP 1A1 mRNA [5]: more potent inducer of CYP 1A1 mRNA than is pantoprazole
